From ChEMBL document CHEMBL3621041, “Optimization of a Novel Binding Motif to (E)-3-(3,5-Difluoro-4-((1R,3R)-2-(2-fluoro-2-methylpropyl)-3-methyl-2,3,4,9-tetrahydro-1H-pyrido[3,4-b]indol-1-yl)phenyl)acrylic Acid (AZD9496), a Potent and Orally Bioavailable Selective Estrogen Receptor Downregulator and Antagonist” (J Med Chem, 2015)
Values after ≈ are worked out from the molar mass of the structure shown. Active and inactive are the calls of the source. The rule behind the calls is not given here.

Legend:
[1] = test system: MCF7; assay: cells; conditions: Homo sapiens, MCF7, read-out: pIC50 (converted)
Description: Antiproliferative activity against human MCF7 cells

[2] = target: T1, Estrogen receptor (Homo sapiens, UniProt P03372)
T1 sequence (P03372 whole entry): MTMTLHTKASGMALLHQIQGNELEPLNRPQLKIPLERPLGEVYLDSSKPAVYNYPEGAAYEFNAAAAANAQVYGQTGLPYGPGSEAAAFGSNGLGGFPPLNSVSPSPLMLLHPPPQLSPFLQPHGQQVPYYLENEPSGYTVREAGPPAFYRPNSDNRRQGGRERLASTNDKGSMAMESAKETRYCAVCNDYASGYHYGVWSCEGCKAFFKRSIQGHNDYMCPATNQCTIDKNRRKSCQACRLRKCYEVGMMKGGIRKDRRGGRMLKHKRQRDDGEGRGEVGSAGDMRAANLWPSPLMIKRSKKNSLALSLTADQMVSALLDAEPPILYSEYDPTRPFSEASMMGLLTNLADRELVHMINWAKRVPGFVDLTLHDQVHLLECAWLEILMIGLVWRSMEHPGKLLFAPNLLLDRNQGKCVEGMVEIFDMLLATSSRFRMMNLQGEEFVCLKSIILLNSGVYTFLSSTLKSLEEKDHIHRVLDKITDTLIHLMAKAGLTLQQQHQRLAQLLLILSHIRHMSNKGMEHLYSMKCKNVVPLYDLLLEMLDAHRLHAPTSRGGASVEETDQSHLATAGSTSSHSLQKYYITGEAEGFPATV
Description: Binding affinity to ERalpha receptor (unknown origin)

[3] = target: T1, Estrogen receptor; remark: listed apart in the source
Description: Antagonist activity at ERalpha receptor in human MCF7 cells

[4] = target: T2, Progesterone receptor (Homo sapiens, UniProt P06401); assay: Agonist activity at progesterone receptor in human MCF7 cells; type: cell-based
T2 sequence (P06401 whole entry): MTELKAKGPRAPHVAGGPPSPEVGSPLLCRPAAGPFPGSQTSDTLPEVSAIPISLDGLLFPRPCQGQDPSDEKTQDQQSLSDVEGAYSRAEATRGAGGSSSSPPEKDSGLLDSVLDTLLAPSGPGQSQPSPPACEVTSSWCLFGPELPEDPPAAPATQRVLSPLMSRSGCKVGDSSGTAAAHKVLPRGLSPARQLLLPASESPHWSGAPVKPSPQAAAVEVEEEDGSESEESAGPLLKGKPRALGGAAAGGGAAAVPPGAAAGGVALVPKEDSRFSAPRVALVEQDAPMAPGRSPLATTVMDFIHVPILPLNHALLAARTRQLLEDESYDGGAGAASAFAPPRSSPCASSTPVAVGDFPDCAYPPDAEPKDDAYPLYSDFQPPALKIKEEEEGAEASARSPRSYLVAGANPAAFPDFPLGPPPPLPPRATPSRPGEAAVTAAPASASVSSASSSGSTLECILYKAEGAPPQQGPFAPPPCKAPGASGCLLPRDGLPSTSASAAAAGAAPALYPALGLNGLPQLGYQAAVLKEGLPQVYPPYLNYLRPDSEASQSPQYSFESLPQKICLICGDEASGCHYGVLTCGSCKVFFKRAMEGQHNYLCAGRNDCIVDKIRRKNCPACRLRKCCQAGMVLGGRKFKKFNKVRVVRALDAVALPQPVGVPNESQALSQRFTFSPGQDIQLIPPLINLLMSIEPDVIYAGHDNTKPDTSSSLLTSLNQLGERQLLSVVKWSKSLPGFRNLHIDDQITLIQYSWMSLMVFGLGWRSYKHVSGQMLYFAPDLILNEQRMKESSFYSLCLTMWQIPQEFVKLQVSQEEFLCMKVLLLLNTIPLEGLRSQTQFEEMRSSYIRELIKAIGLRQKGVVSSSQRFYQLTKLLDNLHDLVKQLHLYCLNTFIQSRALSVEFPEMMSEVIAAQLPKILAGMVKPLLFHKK

[5] = target: T3, Progesterone receptor (Homo sapiens) (UniProt P06401); assay: Agonist activity at progesterone receptor (unknown origin) at 100 uM
T3 sequence (whole entry): T2 sequence (P06401 whole entry)

[6] = Volume of distribution at steady state in Han Wistar rat at 2 umol/kg, iv and 5 umol/kg, po; type: ADME, organism-based; conditions: in vivo, read-out: Vdss
[7] = Intrinsic clearance in rat cryopreserved hepatocytes assessed per 10^6 cells; type: ADME, cell-based, Hepatocyte; conditions: read-out: CLH
[8] = Clearance in Han Wistar rat at 2 umol/kg, iv and 5 umol/kg, po; type: ADME, organism-based; conditions: in vivo
[9] = Fraction unbound in Han Wistar rat 10% plasma by equilibrium dialysis; type: ADME, cell-free
[10] = Thermodynamic solubility of the compound in 0.1 M phosphate buffer at pH 7.4 after 24 hrs; type: physicochemical; conditions: read-out: Therm_solubility
[11] = Fraction unbound in human 10% plasma by equilibrium dialysis; type: ADME, cell-free
[12] = Oral bioavailability in Han Wistar rat at 5 umol/kg; type: ADME, organism-based; conditions: in vivo
[13] = Intrinsic clearance in human cryopreserved hepatocytes assessed per 10^6 cells; type: ADME, cell-based, Hepatocyte; conditions: read-out: CLH
[14] = Lipophilicity, log D of the compound at pH 7.4; type: physicochemical; conditions: buffer
[15] = target: T4, Androgen receptor (Homo sapiens, UniProt P10275); assay: Binding affinity to androgen receptor (unknown origin); conditions: read-out: pIC50 (converted)
T4 sequence (P10275 whole entry): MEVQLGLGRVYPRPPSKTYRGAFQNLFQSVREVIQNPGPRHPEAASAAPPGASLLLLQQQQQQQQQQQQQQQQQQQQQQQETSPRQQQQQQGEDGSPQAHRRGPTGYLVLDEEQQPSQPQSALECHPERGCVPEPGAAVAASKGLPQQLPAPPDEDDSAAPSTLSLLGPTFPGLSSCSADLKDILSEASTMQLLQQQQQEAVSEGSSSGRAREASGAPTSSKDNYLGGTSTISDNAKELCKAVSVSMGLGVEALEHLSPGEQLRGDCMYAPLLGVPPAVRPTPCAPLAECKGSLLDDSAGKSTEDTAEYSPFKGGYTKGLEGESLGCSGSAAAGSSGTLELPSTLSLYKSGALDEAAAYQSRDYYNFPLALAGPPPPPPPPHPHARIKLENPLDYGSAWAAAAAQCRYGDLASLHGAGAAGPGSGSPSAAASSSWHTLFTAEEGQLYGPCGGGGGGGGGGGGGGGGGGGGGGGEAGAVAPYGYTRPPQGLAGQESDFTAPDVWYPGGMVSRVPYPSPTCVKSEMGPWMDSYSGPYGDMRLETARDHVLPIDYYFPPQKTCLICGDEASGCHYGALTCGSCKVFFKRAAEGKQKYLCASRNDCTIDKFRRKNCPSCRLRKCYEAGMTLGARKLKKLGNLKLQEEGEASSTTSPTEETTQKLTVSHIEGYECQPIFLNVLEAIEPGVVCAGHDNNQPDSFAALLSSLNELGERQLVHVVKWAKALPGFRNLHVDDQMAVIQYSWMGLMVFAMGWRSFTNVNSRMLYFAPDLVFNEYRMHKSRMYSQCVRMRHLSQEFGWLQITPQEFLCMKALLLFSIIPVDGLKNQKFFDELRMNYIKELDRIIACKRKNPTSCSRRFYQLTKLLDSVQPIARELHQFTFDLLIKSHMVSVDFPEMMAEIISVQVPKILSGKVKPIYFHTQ

[16] = target: T2, Progesterone receptor; assay: Binding affinity to progesterone receptor (unknown origin)
[17] = target: T5, Glucocorticoid receptor (Homo sapiens, UniProt P04150); assay: Binding affinity to glucocorticoid receptor (unknown origin); conditions: read-out: pIC50 (converted)
T5 sequence (P04150 whole entry): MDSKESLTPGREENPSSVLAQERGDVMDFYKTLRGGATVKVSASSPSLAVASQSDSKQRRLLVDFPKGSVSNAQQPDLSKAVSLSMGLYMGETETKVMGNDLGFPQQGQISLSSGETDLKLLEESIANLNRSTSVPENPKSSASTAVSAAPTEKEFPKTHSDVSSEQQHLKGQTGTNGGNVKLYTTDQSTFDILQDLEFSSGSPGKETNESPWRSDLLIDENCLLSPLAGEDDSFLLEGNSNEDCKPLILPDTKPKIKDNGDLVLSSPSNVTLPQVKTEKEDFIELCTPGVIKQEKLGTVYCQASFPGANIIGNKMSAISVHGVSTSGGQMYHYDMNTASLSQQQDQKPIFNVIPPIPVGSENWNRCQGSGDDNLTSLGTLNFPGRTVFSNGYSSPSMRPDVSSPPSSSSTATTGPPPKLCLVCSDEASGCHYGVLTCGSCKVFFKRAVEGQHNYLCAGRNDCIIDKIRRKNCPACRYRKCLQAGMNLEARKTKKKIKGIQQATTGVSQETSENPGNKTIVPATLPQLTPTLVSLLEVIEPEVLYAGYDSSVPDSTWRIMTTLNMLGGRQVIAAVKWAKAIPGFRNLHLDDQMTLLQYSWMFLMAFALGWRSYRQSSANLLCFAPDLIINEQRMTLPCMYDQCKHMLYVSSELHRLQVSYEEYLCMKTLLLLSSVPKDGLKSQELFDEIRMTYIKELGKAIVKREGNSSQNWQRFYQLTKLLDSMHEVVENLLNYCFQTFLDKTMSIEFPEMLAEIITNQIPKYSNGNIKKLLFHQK

Row | IC50 [1] [µM] | IC50 [2] [µM] | IC50 [3] [µM] | IC50 [4] [µM] | SMILES | other results
1 | 0.000229 | 0.000708 | 0.000417 | > 3.16 | CC(C)CN1[C@H](c2c(F)cc(/C=C/C(=O)O)cc2F)c2[nH]c3ccccc3c2C[C@H]1C | –
2 | 0.295 | – | – | > 100 | CC/C(=C(\c1ccccc1)c1ccc(/C=C/C(=O)O)cc1)c1ccccc1 | percent agonist activity [5]: inactive
3 | > 25.1 | 1.78 | 0.776 | > 100 | C[C@@H]1Cc2c([nH]c3ccccc23)[C@@H](c2ccc(Cl)cc2)N1CCC(=O)O | percent agonist activity [5]: 15%
4 | 0.000324 | – | – | > 3.16 | C[C@@H]1Cc2c([nH]c3ccccc23)[C@@H](c2ccc(/C=C/C(=O)O)cc2)N1CC(C)(C)F | –
5 | – | – | – | > 31.6 | CC/C(=C(\c1ccc(O)cc1)c1ccc(/C=C/C(=O)O)cc1)c1ccccc1 | percent agonist activity [5]: inactive
6 | > 31.6 | 0.0708 | 0.0302 | 0.0129 | C[C@@H]1Cc2c([nH]c3ccccc23)[C@@H](c2ccc(Cl)cc2)N1C[C@H](C)C(=O)O | Vd [6]: 0.34 L/kg; hepatocyte CLint [7]: 82 µL/min/1e6 cells; clearance [8]: 0.84 L/h/kg; fraction unbound [9]: 0.032; solubility thermodynamic at 24 h [10]: 1440 µM (≈ 551 µg/mL); fraction unbound [11]: 0.015; bioavailability [12]: 42%; hepatocyte CLint [13]: 23 µL/min/1e6 cells; logD [14]: 2.8
7 | 13.8 | 0.0398 | 0.0851 | > 100 | C[C@@H]1Cc2c([nH]c3ccccc23)[C@@H](c2ccc(Cl)cc2)N1CCO | percent agonist activity [5]: 15%
8 | – | 0.0977 | 0.0457 | > 100 | C[C@@H](CO)CN1[C@H](c2ccc(/C=C/C(=O)O)cc2)c2[nH]c3ccccc3c2C[C@H]1C | –
9 | > 31.6 | 0.0224 | 0.0437 | 0.0331 | C[C@@H]1Cc2c([nH]c3ccc(O)cc23)[C@@H](c2ccc(Cl)cc2)N1CCO | –
10 | 0.0224 | 0.0692 | 0.0468 | > 100 | C[C@H](CO)CN1[C@H](c2ccc(/C=C/C(=O)O)cc2)c2[nH]c3ccccc3c2C[C@H]1C | hepatocyte CLint [7]: 21 µL/min/1e6 cells; fraction unbound [9]: 0.091; solubility thermodynamic at 24 h [10]: > 1400 µM; fraction unbound [11]: 0.046; hepatocyte CLint [13]: 26 µL/min/1e6 cells; logD [14]: 1.6
11 | 0.813 | 0.692 | 1.32 | > 100 | C[C@@H]1Cc2c([nH]c3ccccc23)[C@@H](c2ccc(/C=C/C(=O)O)cc2)N1CCO | –
12 | – | 13.8 | 3.72 | > 31.6 | O=C(O)CCN1CCc2c([nH]c3ccccc23)C1c1ccc(Cl)cc1 (racemic) | Vd [6]: 0.6 L/kg; hepatocyte CLint [7]: 29 µL/min/1e6 cells; clearance [8]: 0.24 L/h/kg; fraction unbound [9]: 0.072; solubility thermodynamic at 24 h [10]: > 1600 µM; bioavailability [12]: 85%; hepatocyte CLint [13]: 19 µL/min/1e6 cells; logD [14]: 1.6
13 | 0.0575 | – | – | – | CC/C(=C(\c1ccccc1)c1ccc(OCCN(C)C)cc1)c1ccccc1 [TAMOXIFEN] | –
14 | – | 2.04 | 1.17 | > 100 | OCCN1CCc2c([nH]c3ccccc23)C1c1ccc(Cl)cc1 (racemic) | hepatocyte CLint [7]: 300 µL/min/1e6 cells; IC50 [15]: > 31.6 µM; fraction unbound [9]: 0.045; IC50 [16]: > 31.6 µM; solubility thermodynamic at 24 h [10]: 15 µM (≈ 4.9 µg/mL); IC50 [17]: > 31.6 µM; hepatocyte CLint [13]: 70 µL/min/1e6 cells; logD [14]: 3.7

Row | SMILES | IC50 [1] [µM] | IC50 [2] [µM] | IC50 [3] [µM] | IC50 [4] [µM] | other results
15 | CCC(=C(c1ccc(O)cc1)c1ccc(OCCN(C)C)cc1)c1ccccc1 | 0.000537 | – | – | > 100 | –
16 | C[C@]12CC[C@@H]3c4ccc(O)cc4C[C@@H](CCCCCCCCC[S+]([O-])CCCC(F)(F)C(F)(F)F)[C@H]3[C@@H]1CC[C@@H]2O (some centres not stated) [FULVESTRANT] | 0.0001 | – | – | > 100 | –
